Data: US6339102B1, “Method and composition for treating and preventing retinal damage” (The United States of America as represented by the …, priority 1999, dated 2002)
Like-named read-outs stand apart in the source and are kept apart here.

Legend:
cultured neurons = assay: MTT neuroprotection assay in cultured neurons after H2O2 oxidative insult; assay type: cell-based; details: for % Neuroprotection: 4 h pre-treatment, 50 μM H2O2 30 min, MTT after 24 h, mean±SEM
Experimental: In a separate series of experiments, cultured neurons were pre-treated with four different concentrations of DHL with or without 10 mM SPBN for four hours. At the conclusion of the preincubation period, an oxidative insult was applied by adding 50 μM of hydrogen peroxide (H2O2) for an additional 30 min. Medium containing the H2O2 and antioxidants was then removed and Minimum Essential Medium (MEM) was added to the wells for 24 hours. Neuroprotection was then assessed by conducting the calorimetric MTT assay. One way ANOVA with significance of differences between means assessed by Tukey-Kramer Multiple Comparisons test.
Data are depicted as means±SEM (n=8). Significance was determined by one way ANOVA, and differences between the means was assessed by the Tukey-Kramer test. (See table 1).

[1] = system: dissociated retinal cells; assay: MTT viability of dissociated retinal cells exposed to NaCN and 2-deoxyglucose (simulated ischemia); assay type: cell-based, rabbit; details: NaCN and 2-DG giving approximately 60% toxicity, p<0.004
traumatic brain injury = details: administered either 15 minutes prior or 30 minutes post injury; preliminary studies; cited from earlier work
focal ischemia [2] = details: rat; temporary model: given 3 hours or even 5 hours after start of recirculation; cited from earlier work
[3] = in vivo; cited from earlier work
[4] = cited from earlier work
focal ischemia [5] = details: initiation of treatment delayed as long as 12 hours; cited from earlier work
ferrous chloride = details: mice, intracerebral lethal injection of ferrous chloride; cited from earlier work
cortical contusion = details: rat; cited from earlier work
striatal lesions = details: 100 mg/kg i.p. 30 min prior and q 8 hours for 48 hours after insult; or 300 mg/kg ip repeated; cited from earlier work
[6] = Aldrich catalog description; cited from earlier work
retinal ganglion cells = details: 500 ng by intraocular injection; Klocker et al.; cited from earlier work
[7] = system: ischemia-perfusion injury; details: gerbil; cited from earlier work
[8] = in vivo; cited from earlier work; remark: listed apart in the source
lesions of striatum = details: rats; cited from earlier work
[9] = system: ischemia-perfusion injury; details: rat; cited from earlier work

O=C(O)CCCC[C@@H](S)CCS (racemic) [DHL, dihydrolipoic acid]
% Neuroprotection (cultured neurons; DHL 3 μM): 1.31 ± 5.23% | % Neuroprotection (cultured neurons; DHL 10 μM): −3.68 ± 5.14% | % Neuroprotection (cultured neurons; DHL 30 μM): 7.04 ± 7.38% | % Neuroprotection (cultured neurons; DHL 100 μM): 28.48 ± 5.83% | protection against damage from NaCN and 2-DG (maximum effect) ([1]; DHL 0.3 millimolar co-administered): approximately 60% | Emax ([1]; Oryctolagus cuniculus, DHL 0.1 millimolar co-administered, read-out: protection against damage from NaCN and 2-DG (maximum effect)): ~60%

CC(C)(C)[N+]([O-])=Cc1ccc(S(=O)(=O)[O-])cc1S(=O)(=O)[O-].[Na+].[Na+] [NXY-059]
volume of necrosis after traumatic brain injury (traumatic brain injury): effective in decreasing volume of necrosis | efficacy in temporary and permanent focal ischemia (focal ischemia [2]): effective

CC(C)(C)[N+]([O-])=Cc1ccccc1 [PBN, α-Phenyl-N-tert-butylnitrone]
blood brain barrier crossing [3]: crosses the blood brain barrier | toxicity ([4]; in high concentrations): somewhat toxic | toxicity ([4]; very high doses): toxicity is a problem | neuroprotection in rat focal ischemia model (focal ischemia [5]): neuroprotective | seizures and time to death after ferrous chloride (ferrous chloride): minimized seizures and delayed time to death | accumulation of lactate following cortical contusion (cortical contusion): attenuate

CC(C)(C)[N+]([O-])=Cc1ccccc1S(=O)(=O)O [SPBN, N-tert-Butyl-α-[2-sulfophenyl]-nitrone]
protection against striatal toxin lesions (lesion volume) (striatal lesions): protective | effect of SPBN on the neuroprotective efficacy of DHL (cultured neurons; 10 mM SPBN, at three of the four DHL concentrations tested): significantly increased | water solubility [6]: water-soluble | retinal ganglion cells rescued after axotomy (retinal ganglion cells): 27%

O=C(O)CCCCC1CCSS1 (stereo not drawn) [αLA, Alpha-lipoic acid]
neuroprotection against ischemia-perfusion injury [7]: neuro-protective | clinical safety [8]: clinically safe | efficacy against NMDA and malonic acid lesions of striatum (lesions of striatum): effective | neuroprotection against ischemia-perfusion injury [9]: neuro-protective
